# Laboratory results published in ChEMBL document CHEMBL1135930, “Identification of nonpeptidic urotensin II receptor antagonists by virtual screening based on a pharmacophore model derived from structure-activity relationships and nuclear magnetic resonance studies on urotensin II” (J Med Chem, 2002).
# Active and inactive are the calls of the source. No cut-off for these calls is given here. Positions of bridges follow the written chain, without caps; N, C: chain ends. Residues, ends and D or L forms follow the SMILES beside them.
# Biological target: T1, Urotensin-2 receptor (Homo sapiens) (UniProt Q9UKP6)
# T1 sequence (whole entry): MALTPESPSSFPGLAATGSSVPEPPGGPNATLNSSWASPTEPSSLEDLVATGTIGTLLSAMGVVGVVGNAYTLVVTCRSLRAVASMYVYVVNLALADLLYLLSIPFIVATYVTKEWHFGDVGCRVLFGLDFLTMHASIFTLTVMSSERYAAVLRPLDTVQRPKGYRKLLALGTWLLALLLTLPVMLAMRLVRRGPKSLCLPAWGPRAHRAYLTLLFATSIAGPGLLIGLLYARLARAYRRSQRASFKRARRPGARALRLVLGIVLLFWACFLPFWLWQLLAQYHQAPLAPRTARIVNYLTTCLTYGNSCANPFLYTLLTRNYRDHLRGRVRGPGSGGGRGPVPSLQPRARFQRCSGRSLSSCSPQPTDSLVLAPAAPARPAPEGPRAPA
# Conditions: CHO
row,NA,SMILES
1,inactive,CC(C)[C@H](NC(=O)[C@H](CS)NC(=O)[C@@H](Cc1ccc(O)cc1)NC(=O)[C@H](CCCCN)NC(=O)[C@H](Cc1c[nH]c2ccccc12)NC(=O)[C@H](Cc1ccccc1)NC(=O)[C@H](CS)NC(=O)[C@H](CC(=O)O)NC(=O)[C@H]1CCCN1C(=O)[C@@H](NC(=O)[C@@H](N)CCC(=O)O)[C@@H](C)O)C(=O)O
2,inactive,CC(C)[C@H](NC(=O)[C@H](CS)NC(=O)[C@H](CCCCN)NC(=O)[C@H](Cc1c[nH]c2ccccc12)NC(=O)[C@H](Cc1ccccc1)NC(=O)[C@H](CS)NC(=O)[C@H](CC(=O)O)NC(=O)[C@H]1CCCN1C(=O)[C@@H](NC(=O)[C@@H](N)CCC(=O)O)[C@@H](C)O)C(=O)O
3,inactive,CC(C)[C@H](NC(=O)[C@H](CS)NC(=O)[C@H](Cc1ccc(O)cc1)NC(=O)[C@H](Cc1c[nH]c2ccccc12)NC(=O)[C@H](Cc1ccccc1)NC(=O)[C@H](CS)NC(=O)[C@H](CC(=O)O)NC(=O)[C@H]1CCCN1C(=O)[C@@H](NC(=O)[C@@H](N)CCC(=O)O)[C@@H](C)O)C(=O)O

# Biological target: T2, Urotensin-2 receptor (Homo sapiens, UniProt Q9UKP6)
# T2 sequence (Q9UKP6 whole entry): T1 sequence (whole entry)
# Experiment: Mobilization of intracellular calcium in CHO cells transiently transfected with human Urotensin 2 receptor
# Format: functional, cell-based
# Conditions: not given
row,EC50 [nM],SMILES
1,233,CC(C)[C@H](NC(=O)[C@H](CS)NC(=O)[C@H](Cc1ccc(O)cc1)NC(=O)[C@H](CCCCN)NC(=O)[C@H](Cc1c[nH]c2ccccc12)NC(=O)[C@H](Cc1ccccc1)NC(=O)[C@H](C)NC(=O)[C@H](CC(=O)O)NC(=O)[C@@H]1CCCN1C(=O)[C@@H](NC(=O)[C@@H](N)CCC(=O)O)[C@@H](C)O)C(=O)O
2,2.7,CC(C)[C@H](NC(=O)[C@H](CS)NC(=O)[C@H](Cc1ccc(O)cc1)NC(=O)[C@H](CCCCN)NC(=O)[C@H](Cc1c[nH]c2ccccc12)NC(=O)[C@H](Cc1ccccc1)NC(=O)[C@H](CS)NC(=O)[C@H](C)NC(=O)[C@@H]1CCCN1C(=O)[C@@H](NC(=O)[C@@H](N)CCC(=O)O)[C@@H](C)O)C(=O)O
3,1.8,CC(C)[C@H](NC(=O)[C@H](CS)NC(=O)[C@H](Cc1ccc(O)cc1)NC(=O)[C@H](CCCCN)NC(=O)[C@H](Cc1c[nH]c2ccccc12)NC(=O)[C@H](Cc1ccccc1)NC(=O)[C@H](CS)NC(=O)[C@H](CC(=O)O)NC(=O)[C@@H]1CCCN1C(=O)[C@@H](NC(=O)[C@H](C)N)[C@@H](C)O)C(=O)O
4,3.3,CC(C)[C@H](NC(=O)[C@H](CS)NC(=O)[C@H](Cc1ccc(O)cc1)NC(=O)[C@H](CCCCN)NC(=O)[C@H](Cc1c[nH]c2ccccc12)NC(=O)[C@H](Cc1ccccc1)NC(=O)[C@H](CS)NC(=O)[C@H](CC(=O)O)NC(=O)[C@@H]1CCCN1C(=O)[C@H](C)NC(=O)[C@@H](N)CCC(=O)O)C(=O)O
5,2.3,NCCCC[C@H](NC(=O)[C@H](Cc1c[nH]c2ccccc12)NC(=O)[C@H](Cc1ccccc1)NC(=O)[C@@H](N)CS)C(=O)N[C@@H](Cc1ccc(O)cc1)C(=O)N[C@@H](CS)C(N)=O (H-CFWKYC-NH2)
6,1.8,CC(C)[C@H](NC(=O)[C@H](CS)NC(=O)[C@H](Cc1ccc(O)cc1)NC(=O)[C@H](CCCCN)NC(=O)[C@H](Cc1c[nH]c2ccccc12)NC(=O)[C@H](Cc1ccccc1)NC(=O)[C@@H](N)CS)C(=O)O (H-CFWKYCV-OH)
7,3,CC(C)[C@H](NC(=O)[C@H](CS)NC(=O)[C@H](Cc1ccc(O)cc1)NC(=O)[C@H](CCCCN)NC(=O)[C@H](Cc1c[nH]c2ccccc12)NC(=O)[C@H](Cc1ccccc1)NC(=O)[C@H](CS)NC(=O)[C@@H](N)CC(=O)O)C(=O)O (H-DCFWKYCV-OH)
8,1.9,CC(C)[C@H](NC(=O)[C@H](CS)NC(=O)[C@H](Cc1ccc(O)cc1)NC(=O)[C@H](CCCCN)NC(=O)[C@H](Cc1c[nH]c2ccccc12)NC(=O)[C@H](Cc1ccccc1)NC(=O)[C@H](CS)NC(=O)[C@H](CC(=O)O)NC(=O)[C@H](C)NC(=O)[C@@H](NC(=O)[C@@H](N)CCC(=O)O)[C@@H](C)O)C(=O)O (H-ETADCFWKYCV-OH)

# Same assay, conditions: cho
row,EC50 [nM],SMILES
1,5.7,CC(C)[C@H](NC(=O)[C@@H]1CSSC[C@H](NC(=O)[C@H](CC(=O)O)NC(=O)[C@@H]2CCCN2C(=O)[C@@H](NC(=O)[C@@H](N)CCC(=O)O)[C@@H](C)O)C(=O)N[C@@H](C)C(=O)N[C@@H](Cc2c[nH]c3ccccc23)C(=O)N[C@@H](CCCCN)C(=O)N[C@@H](Cc2ccc(O)cc2)C(=O)N1)C(=O)O (H-ETPDCAWKYCV-OH; disulfide 5-10)
2,1300,CC(C)[C@H](NC(=O)[C@@H]1CSSC[C@H](NC(=O)[C@H](CC(=O)O)NC(=O)[C@@H]2CCCN2C(=O)[C@@H](NC(=O)[C@@H](N)CCC(=O)O)[C@@H](C)O)C(=O)N[C@@H](Cc2ccccc2)C(=O)N[C@@H](C)C(=O)N[C@@H](CCCCN)C(=O)N[C@@H](Cc2ccc(O)cc2)C(=O)N1)C(=O)O (H-ETPDCFAKYCV-OH; disulfide 5-10)
3,> 10000,CC(C)[C@H](NC(=O)[C@@H]1CSSC[C@H](NC(=O)[C@H](CC(=O)O)NC(=O)[C@@H]2CCCN2C(=O)[C@@H](NC(=O)[C@@H](N)CCC(=O)O)[C@@H](C)O)C(=O)N[C@@H](Cc2ccccc2)C(=O)N[C@@H](CCCCN)C(=O)N[C@@H](Cc2ccc(O)cc2)C(=O)N1)C(=O)O (H-ETPDCFKYCV-OH; disulfide 5-9)
4,14800,CC(C)[C@H](NC(=O)[C@@H]1CSSC[C@H](NC(=O)[C@H](CC(=O)O)NC(=O)[C@@H]2CCCN2C(=O)[C@@H](NC(=O)[C@@H](N)CCC(=O)O)[C@@H](C)O)C(=O)N[C@@H](Cc2ccccc2)C(=O)N[C@@H](Cc2c[nH]c3ccccc23)C(=O)N[C@@H](C)C(=O)N[C@@H](Cc2ccc(O)cc2)C(=O)N1)C(=O)O (H-ETPDCFWAYCV-OH; disulfide 5-10)
5,193,CC(C)[C@H](NC(=O)[C@@H]1CSSC[C@H](NC(=O)[C@H](CC(=O)O)NC(=O)[C@@H]2CCCN2C(=O)[C@@H](NC(=O)[C@@H](N)CCC(=O)O)[C@@H](C)O)C(=O)N[C@@H](Cc2ccccc2)C(=O)N[C@@H](Cc2c[nH]c3ccccc23)C(=O)N[C@@H](CCCCN)C(=O)N[C@@H](C)C(=O)N1)C(=O)O (H-ETPDCFWKACV-OH; disulfide 5-10)
6,1.8,C[C@@H](O)[C@H](NC(=O)[C@@H](N)CCC(=O)O)C(=O)N1CCC[C@H]1C(=O)N[C@@H](CC(=O)O)C(=O)N[C@H]1CSSC[C@@H](C(=O)O)NC(=O)[C@H](Cc2ccc(O)cc2)NC(=O)[C@H](CCCCN)NC(=O)[C@H](Cc2c[nH]c3ccccc23)NC(=O)[C@H](Cc2ccccc2)NC1=O (H-ETPDCFWKYC-OH; disulfide 5-10)
7,3.2,C[C@H](NC(=O)[C@@H]1CSSC[C@H](NC(=O)[C@H](CC(=O)O)NC(=O)[C@@H]2CCCN2C(=O)[C@@H](NC(=O)[C@@H](N)CCC(=O)O)[C@@H](C)O)C(=O)N[C@@H](Cc2ccccc2)C(=O)N[C@@H](Cc2c[nH]c3ccccc23)C(=O)N[C@@H](CCCCN)C(=O)N[C@@H](Cc2ccc(O)cc2)C(=O)N1)C(=O)O (H-ETPDCFWKYCA-OH; disulfide 5-10)
8,53,CC(C)[C@H](NC(=O)[C@@H]1CSSC[C@H](NC(=O)[C@H](CC(=O)O)NC(=O)[C@@H]2CCCN2C(=O)[C@@H](NC(=O)[C@@H](N)CCC(=O)O)[C@@H](C)O)C(=O)N[C@@H](Cc2c[nH]c3ccccc23)C(=O)N[C@@H](CCCCN)C(=O)N[C@@H](Cc2ccc(O)cc2)C(=O)N1)C(=O)O (H-ETPDCWKYCV-OH; disulfide 5-9)
9,3.6,CC(C)[C@H](NC(=O)[C@@H]1CSSC[C@H](NC(=O)[C@H](CC(=O)O)NC(=O)[C@@H]2CCCN2)C(=O)N[C@@H](Cc2ccccc2)C(=O)N[C@@H](Cc2c[nH]c3ccccc23)C(=O)N[C@@H](CCCCN)C(=O)N[C@@H](Cc2ccc(O)cc2)C(=O)N1)C(=O)O (H-PDCFWKYCV-OH; disulfide 3-8)
10,2.4,CC(C)[C@H](NC(=O)[C@@H]1CSSC[C@H](NC(=O)[C@H](CC(=O)O)NC(=O)[C@@H]2CCCN2C(=O)[C@@H](N)[C@@H](C)O)C(=O)N[C@@H](Cc2ccccc2)C(=O)N[C@@H](Cc2c[nH]c3ccccc23)C(=O)N[C@@H](CCCCN)C(=O)N[C@@H](Cc2ccc(O)cc2)C(=O)N1)C(=O)O (H-TPDCFWKYCV-OH; disulfide 4-9)
